Experimental data as given in patent US4257941A, “Polycyclic nitrogen-containing compounds” (BASF Aktiengesellschaft, priority 1976, dated 1981).
Read-outs that look alike come from different tables or passages of the source.

Tests used:
Format in all cases: in vivo
soybeans = assay: Growth of roots and shoots of soybeans, hydroponic (Example 16); conditions: for Root dry substance rel. / Root length rel. / Shoot dry substance rel. / Shoot length rel.: control 100
Procedure: Young soybean plants grown in quartz sand were transferred to hydroponic treatment in 4 liter vessels and provided with a sufficient supply of nutrient solution and trace elements. The active ingredients were added (0.25 mg/vessel=0.06 ppm; 1.0 mg/vessel=0.25 ppm; 2.5 mg/vessel=0.63 ppm) at a plant height of approx. 22 cm. The plants were in continuous contact with the active ingredients. […] The roots were also shorter, but the plants had more and stronger shoots.

Poa annua = assay: Herbicidal action (Example 25); conditions: for pest or weed control at 2000 g/ha / pest or weed control at 4000 g/ha / pest or weed control at 8000 g/ha: Poa annua, read-out: percentage damage; for pest or weed control at 4000 g/ha: 4.0 kg/ha; for pest or weed control at 8000 g/ha: 8.0 kg/ha
Procedure: (§1) Paraffined paper cups having a volume of 170 cm^3 were filled with a sandy loam, and the seeds of the test plants sown therein, separated by species. (The species are also listed below.)
(§2) In the first group, treatment was effected immediately after sowing and before germination of the seeds (preemergence treatment=soil treatment). Shallow sown seeds not completely covered with soil came into contact with the active ingredients. In the second group, the plants were treated postemergence (=leaf treatment) at a growth height of from 2 to 8 cm, depending on the rate of growth and shape of the species concerned. The compounds were suspended or emulsified in water and applied with the aid of fine nozzles. The soil and plants were thoroughly sprinkler irrigated for the duration of the experiment. The cups were placed in the greenhouse and kept in the temperature range 12°-25° C. or 18°-35° C., depending on the temperature requirements of the various species. After 2 to 6 weeks the action was assessed visually on a 0 to 100 scale, 0 denoting no damage and 100 denoting plants not germinated or completely destroyed.

Lamium spp. = assay: Herbicidal action (Example 25)
Procedure: as §1, §2

Solanum nigrum = assay: Herbicidal action (Example 25)
Procedure: as §1, §2

Galium aparine = assay: Herbicidal action (Example 25); conditions: read-out: percentage damage; for pest or weed control at 2000 g/ha: 2.0 kg/ha; for pest or weed control at 4000 g/ha: 4.0 kg/ha; for pest or weed control at 8000 g/ha: 8.0 kg/ha
Procedure: as §1, §2

[1] = post-emergence, postemergence, 2.0 kg/ha

In the case of `Clc1ccc(N2N=NC3C4CC(C5N=NC45)C32)cc1` (stereo not drawn) [drawing 387], the Root dry substance (soybeans; 0.06 ppm) is reported as 13.5 g, the Root length (soybeans; 0.06 ppm) is reported as 28.3 cm and the Shoot dry substance (soybeans; 0.06 ppm) is reported as 39.0 g. The Shoot length (soybeans; 0.06 ppm) was 70.7 cm, the “Root dry substance rel.” value (soybeans; 0.06 ppm) was 97.1 and the Root length rel. (soybeans; 0.06 ppm) was 93.4. The “Shoot dry substance rel.” value (soybeans; 0.06 ppm) was 94.9, the Shoot length rel. (soybeans; 0.06 ppm) was 95.4 and the Root dry substance (soybeans; 0.25 ppm) was 13.2 g. For the same compound, the Root length (soybeans; 0.25 ppm) was 24.7 cm, the Shoot dry substance (soybeans; 0.25 ppm) was 31.5 g and the Shoot length (soybeans; 0.25 ppm) was 62.3 cm. For the same compound, the “Root dry substance rel.” value (soybeans; 0.25 ppm) was 95.0, the Root length rel. (soybeans; 0.25 ppm) was 81.5 and the “Shoot dry substance rel.” value (soybeans; 0.25 ppm) was 76.6. The Shoot length rel. (soybeans; 0.25 ppm) was 84.1, the Root dry substance (soybeans; 0.63 ppm) was 15.0 g and the Root length (soybeans; 0.63 ppm) was 24.7 cm. The Shoot dry substance (soybeans; 0.63 ppm) was 26.6 g, the Shoot length (soybeans; 0.63 ppm) was 51.7 cm and the “Root dry substance rel.” value (soybeans; 0.63 ppm) was 107.9. The Root length rel. (soybeans; 0.63 ppm) was 81.5, the “Shoot dry substance rel.” value (soybeans; 0.63 ppm) was 64.7 and the Shoot length rel. (soybeans; 0.63 ppm) was 69.8.
For `c1ccc(N2N=NC3C4CC(C5N=NC45)C32)cc1` (stereo not drawn) [drawing 431], the pest or weed control at 2000 g/ha (Poa annua; [1]) was 35%, the pest or weed control at 4000 g/ha (Poa annua; post-emergence, postemergence) was 40% and the pest or weed control at 8000 g/ha (Poa annua; post-emergence, postemergence) was 50%. For the same compound, the pest or weed control at 4000 g/ha (Poa annua; pre-emergence, preemergence) was 100%, the pest or weed control at 8000 g/ha (Poa annua; pre-emergence, preemergence) was 100% and the percentage damage (Poa annua; preemergence, 2.0 kg/ha) was 100 percentage damage. It also gave a percentage damage (Lamium spp.; postemergence, 2.0 kg/ha) of 60 percentage damage, a percentage damage (Lamium spp.; postemergence, 4.0 kg/ha) of 90 percentage damage and a percentage damage (Lamium spp.; postemergence, 8.0 kg/ha) of 90 percentage damage. The percentage damage (Lamium spp.; preemergence, 2.0 kg/ha) was 95 percentage damage, the percentage damage (Lamium spp.; preemergence, 4.0 kg/ha) was 95 percentage damage and the percentage damage (Lamium spp.; preemergence, 8.0 kg/ha) was 95 percentage damage. It also gave a percentage damage (Solanum nigrum; postemergence, 2.0 kg/ha) of 85 percentage damage, a percentage damage (Solanum nigrum; postemergence, 4.0 kg/ha) of 100 percentage damage and a percentage damage (Solanum nigrum; postemergence, 8.0 kg/ha) of 100 percentage damage. For the same compound, the percentage damage (Solanum nigrum; preemergence, 2.0 kg/ha) was 95 percentage damage, the percentage damage (Solanum nigrum; preemergence, 4.0 kg/ha) was 95 percentage damage and the percentage damage (Solanum nigrum; preemergence, 8.0 kg/ha) was 95 percentage damage. The pest or weed control at 2000 g/ha (Galium aparine; post-emergence, postemergence) was 10%, the pest or weed control at 4000 g/ha (Galium aparine; post-emergence, postemergence) was 15% and the pest or weed control at 8000 g/ha (Galium aparine; post-emergence, postemergence) was 20%. The pest or weed control at 2000 g/ha (Galium aparine; pre-emergence, preemergence) was 80%, the pest or weed control at 4000 g/ha (Galium aparine; pre-emergence, preemergence) was 100% and the pest or weed control at 8000 g/ha (Galium aparine; pre-emergence, preemergence) was 100%.
Work on `c1csc(N2N=NC3C4CC(C5N=NC45)C32)n1` (stereo not drawn) [drawing 432] yielded a pest or weed control at 2000 g/ha (Poa annua; [1]) of 38%, a pest or weed control at 4000 g/ha (Poa annua; post-emergence, postemergence) of 52% and a pest or weed control at 8000 g/ha (Poa annua; post-emergence, postemergence) of 68%. For the same compound, the pest or weed control at 2000 g/ha (Poa annua; pre-emergence, preemergence, 2.0 kg/ha) was 80%, the pest or weed control at 4000 g/ha (Poa annua; pre-emergence, preemergence) was 92% and the pest or weed control at 8000 g/ha (Poa annua; pre-emergence, preemergence) was 95%. The percentage damage (Lamium spp.; postemergence, 2.0 kg/ha) was 55 percentage damage, the percentage damage (Lamium spp.; postemergence, 4.0 kg/ha) was 60 percentage damage and the percentage damage (Lamium spp.; postemergence, 8.0 kg/ha) was 95 percentage damage. It also gave a percentage damage (Lamium spp.; preemergence, 2.0 kg/ha) of 95 percentage damage, a percentage damage (Lamium spp.; preemergence, 4.0 kg/ha) of 95 percentage damage and a percentage damage (Lamium spp.; preemergence, 8.0 kg/ha) of 95 percentage damage. The percentage damage (Solanum nigrum; postemergence, 2.0 kg/ha) was 90 percentage damage, the percentage damage (Solanum nigrum; postemergence, 4.0 kg/ha) was 95 percentage damage and the percentage damage (Solanum nigrum; postemergence, 8.0 kg/ha) was 100 percentage damage. For the same compound, the percentage damage (Solanum nigrum; preemergence, 2.0 kg/ha) was 95 percentage damage, the percentage damage (Solanum nigrum; preemergence, 4.0 kg/ha) was 95 percentage damage and the percentage damage (Solanum nigrum; preemergence, 8.0 kg/ha) was 95 percentage damage. It also gave a pest or weed control at 2000 g/ha (Galium aparine; post-emergence, postemergence) of 10%, a pest or weed control at 4000 g/ha (Galium aparine; post-emergence, postemergence) of 18% and a pest or weed control at 8000 g/ha (Galium aparine; post-emergence, postemergence) of 30%. For the same compound, the pest or weed control at 2000 g/ha (Galium aparine; pre-emergence, preemergence) was 72%, the pest or weed control at 4000 g/ha (Galium aparine; pre-emergence, preemergence) was 98% and the pest or weed control at 8000 g/ha (Galium aparine; pre-emergence, preemergence) was 90%.
